According to patent US20240051952A1, “HMOX1 INDUCERS” (Mitobridge Inc., priority 2019, published 2024):

Test system: Human Heme Oxygenase-1 (HMOX-1)
Test: ELISA assay to measure human heme oxygenase-1 (HMOX-1) in HepG2 lysate
Type: cell-based
Conditions: for Maximum Fold induction: fold change of human HMOX1 protein levels relative to DMSO control, HepG2
Description: Example 143. ELISA Assay to Measure Human Heme Oxygenase-1 (HMOX-1) in HepG2 lysate
Reagents and Technical Notes:
ELISA capture antibody, standard HO-1, detection antibody and streptavidin HRP were supplied in the DuoSet IC Human total HO-1 ELISA from R&D systems (DYC3776-2). The substrate cocktail was KPL LumiGLO reserve Chemiluminescent Substrate (54-71-00). PBS was Corning Cellgro Cell Culture (21-040-CV). 10×PBS+0.05% tween20 (PBST) was from KPL.
All incubations of the plate were at room temperature (20° C.) in a closed drawer.
The ELISA plate was processed manually. All loadings were with a multichannel pipet. Plates were emptied by shaking into the sink and tapping onto paper towels to remove any remaining reagent. Plate washing was accomplished by loading all wells with PBS+0.05% tween20 (PBST) using a squirt bottle, shaking the PBST out and tapping the plate onto paper towels.
Preparation of the ELISA Plate: • 1. anti-HO-1 capture antibody was 1440 μg/ml after reconstitution in PBS. This antibody was diluted to 8 μg/ml in PBS and 50 μl per well was added to a 384 well greiner “lumitrac 200” plate. Incubated overnight. • 2. The plate was emptied and 100 μl PBS+1% BSA added to all wells. Incubated 90 minutes at room temperature.
Preparation of HepG2 Lysate: • 1. Cells were cultured in a 96-well tissue culture plate washed with PBS and then the plate frozen at −70° C. overnight. Plates were allowed to warm to ice temperature in an ice bucket. 20 μl of PBS, 0.5% Triton X100, 1 mM EDTA with 1×HALT™ protease inhibitors was added to each well and the plates incubated on ice for 1 hour. • 2. The lysates were frozen at −20° C. overnight.
Measurement of HMOX1 (“HO-1”) • 1. In a polypropylene 384 well plate, human HO-1(after reconstitution in PBS+0.5% Triton+1 mM EDTA) was serially diluted from 20 ng/ml 2-fold in PBS+0.5% triton-X100, 1 mM EDTA to make a 12-point standard curve including a zero point. • 2. In a polypropylene 96 well plate, HepG2 lysate was diluted 1 to 20 in Diluent #4 from DUOSET kit in which the assay standard is also diluted. • 3. The PBS+1% BSA was emptied from the ELISA plate and 30 μl of all samples and standards were added (duplicates recommended). The plate was incubated 90 minutes. • 4. Emptied plate and washed 4 times with PBST. • 5. Diluted HO-1 detection antibody to 200 ng/ml in PBS+1% BSA and added 30 μl to all wells. Incubated 90 minutes. • 6. Emptied plate and washed 4 times with PBST. • 7. Added 30 μl streptavidin HRP at 1/200 in PBS+1% BSA (stock streptavidin concentration not specified) to all wells. Incubated 30 minutes. • 8. Emptied plate and washed 4 times with PBST. • 9. Diluted Lumiglo reserve reagent two parts buffer to one part lumiglo substrate. Added 30 μl to all wells. Incubated 5 minutes. • 10. Measured chemiluminescence on spectramax M5 using 150 ms integration.
Table 1 below lists EC50 and fold changes of human HMOX1 protein levels relative to DMSO control upon treatment with representative compounds.

Row | Compound | Maximum Fold induction | EC50 (human HMOX1 protein in HepG2 lysate, ELISA, * = average of 2 or more EC50 determinations, NA = Not Active) [µM]
1 | COCCOc1ccc2nc(Nc3nc4cc(C(=O)O)ccc4n3C)oc2c1 [Example 55, 2-((6-(2-methoxyethoxy)benzo[d]oxazol-2-yl)amino)-1-methyl-1H-benzo[d]imidazole-5-carboxylic acid] | 15 | 4.5
2 | COCCOc1ccc2nc(Nc3nc4cc(C(=O)NCCO)ccc4n3C)oc2c1 [Example 57, N-(2-hydroxyethyl)-2-((6-(2-methoxyethoxy)benzo[d]oxazol-2-yl)amino)-1-methyl-1H-benzo[d]imidazole-5-carboxamide] | 34-40 | 
3 | COCCOc1ccc2nc(Nc3nc4cc(C(=O)NCCOCCO)ccc4n3C)oc2c1 [Example 58, N-(2-(2-hydroxyethoxy)ethyl)-2-((6-(2-methoxyethoxy)benzo[d]oxazol-2-yl)amino)-1-methyl-1H-benzo[d]imidazole-5-carboxamide] | 41-60 | 
4 | CC(C)c1ccc2nc(Nc3nc4cc(C(=O)O)ccc4n3C)oc2c1 [Example 59, 2-((6-isopropylbenzo[d]oxazol-2-yl)amino)-1-methyl-1H-benzo[d]imidazole-5-carboxylic acid] | 30 | 
5 | COCCNC(=O)c1ccc2c(c1)nc(Nc1nc3ccc(C(C)C)cc3o1)n2C [Example 60, 2-((6-isopropylbenzo[d]oxazol-2-yl)amino)-N-(2-methoxyethyl)-1-methyl-1H-benzo[d]imidazole-5-carboxamide] | 42-56 | 
6 | CC(C)c1ccc2nc(Nc3nc4cc(C(=O)NCCO)ccc4n3C)oc2c1 [Example 61, N-(2-hydroxyethyl)-2-((6-isopropylbenzo[d]oxazol-2-yl)amino)-1-methyl-1H-benzo[d]imidazole-5-carboxamide] | 60 | 
7 | Cn1c(Nc2nc3ccc(OC(F)F)cc3o2)nc2cc(C(=O)O)ccc21 [Example 62, 2-((6-(difluoromethoxy)benzo[d]oxazol-2-yl)amino)-1-methyl-1H-benzo[d]imidazole-5-carboxylic acid] | 15-24 | 
8 | COCCNC(=O)c1ccc2c(c1)nc(Nc1nc3ccc(OC(F)F)cc3o1)n2C [Example 63, 2-((6-(difluoromethoxy)benzo[d]oxazol-2-yl)amino)-N-(2-methoxyethyl)-1-methyl-1H-benzo[d]imidazole-5-carboxamide] | 11-15 | 
9 | Cn1c(Nc2nc3ccc(OC(F)F)cc3o2)nc2cc(C(=O)NCCO)ccc21 [Example 64, 2-((6-(difluoromethoxy)benzo[d]oxazol-2-yl)amino)-N-(2-hydroxyethyl)-1-methyl-1H-benzo[d]imidazole-5-carboxamide] | 11-18 | 
10 | COCCNC(=O)c1ccc2c(c1)nc(Nc1nc3cc(C)ccc3o1)n2C [Example 65, N-(2-methoxyethyl)-1-methyl-2-((5-methylbenzo[d]oxazol-2-yl)amino)-1H-benzo[d]imidazole-5-carboxamide] | 15-42 | 
11 | Cn1c(Nc2nc3cc(F)ccc3o2)nc2cc(C(=O)O)ccc21 [Example 66, 2-((5-fluorobenzo[d]oxazol-2-yl)amino)-1-methyl-1H-benzo[d]imidazole-5-carboxylic acid] | 19-22 | 
12 | COCCNC(=O)c1ccc2c(c1)nc(Nc1nc3cc(F)ccc3o1)n2C [Example 67, 2-((5-fluorobenzo[d]oxazol-2-yl)amino)-N-(2-methoxyethyl)-1-methyl-1H-benzo[d]imidazole-5-carboxamide] | 18-56 | 
13 | Cn1c(Nc2nc3ccc(F)cc3o2)nc2cc(C(=O)O)ccc21 [Example 68, 2-((6-fluorobenzo[d]oxazol-2-yl)amino)-1-methyl-1H-benzo[d]imidazole-5-carboxylic acid] | 16-21 | 
14 | COCCNC(=O)c1ccc2c(c1)nc(Nc1nc3ccc(F)cc3o1)n2C [Example 69, 2-((6-fluorobenzo[d]oxazol-2-yl)amino)-N-(2-methoxyethyl)-1-methyl-1H-benzo[d]imidazole-5-carboxamide] | 13-36 | 
15 | Cn1c(Nc2nc3ccc(OC(F)(F)F)cc3o2)nc2cc(C(=O)O)c(F)cc21 [Example 70, 6-fluoro-1-methyl-2-((6-(trifluoromethoxy)benzo[d]oxazol-2-yl)amino)-1H-benzo[d]imidazole-5-carboxylic acid] | 8-11 | 
16 | COCCNC(=O)c1cc2nc(Nc3nc4ccc(OC(F)(F)F)cc4o3)n(C)c2cc1F [Example 71, 6-fluoro-N-(2-methoxyethyl)-1-methyl-2-((6-(trifluoromethoxy)benzo[d]oxazol-2-yl)amino)-1H-benzo[d]imidazole-5-carboxamide] | 8-12 | 
17 | Cn1c(Nc2nc3ccccc3o2)nc2cc(C(=O)NCCOCCO)c(F)cc21 [Example 72, 2-(benzo[d]oxazol-2-ylamino)-6-fluoro-N-(2-(2-hydroxyethoxy)ethyl)-1-methyl-1H-benzo[d]imidazole-5-carboxamide] | 31-72 | 
18 | Cn1c(Nc2nc3cc(F)ccc3[nH]2)nc2cc(C(=O)O)ccc21 [Example 73, 2-((5-fluoro-1H-benzo[d]imidazol-2-yl)amino)-1-methyl-1H-benzo[d]imidazole-5-carboxylic acid] | 8-12 | 
19 | CN(C)CCn1c(Nc2nc3ccc(OC(F)(F)F)cc3o2)nc2cc(C(=O)O)ccc21 [Example 74, 1-(2-(dimethylamino)ethyl)-2-((6-(trifluoromethoxy)benzo[d]oxazol-2-yl)amino)-1H-benzo[d]imidazole-5-carboxylic acid] | 17-28 | 
20 | COCCn1c(Nc2nc3cc(OC(F)(F)F)ccc3[nH]2)nc2cc(C(=O)O)ccc21 [Example 75, 1-(2-methoxyethyl)-2-((5-(trifluoromethoxy)-1H-benzo[d]imidazol-2-yl)amino)-1H-benzo[d]imidazole-5-carboxylic acid] | 15-25 | 
21 | COCCNC(=O)c1ccc2c(c1)nc(Nc1nc3cc(OC(F)(F)F)ccc3[nH]1)n2CCOC [Example 76, N,1-bis(2-methoxyethyl)-2-((5-(trifluoromethoxy)-1H-benzo[d]imidazol-2-yl)amino)-1H-benzo[d]imidazole-5-carboxamide] | 18-20 | 
22 | COCCn1c(Nc2nc3ccc(OC(F)(F)F)cc3o2)nc2cc(C(=O)O)ccc21 [Example 77, 1-(2-methoxyethyl)-2-((6-(trifluoromethoxy)benzo[d]oxazol-2-yl)amino)-1H-benzo[d]imidazole-5-carboxylic acid] | 27-28 | 
23 | COCCNC(=O)c1ccc2c(c1)nc(Nc1nc3ccc(OC(F)(F)F)cc3o1)n2CCOC [Example 78, N,1-bis(2-methoxyethyl)-2-((6-(trifluoromethoxy)benzo[d]oxazol-2-yl)amino)-1H-benzo[d]imidazole-5-carboxamide] | 21-23 | 
24 | O=C(O)c1ccc2c(c1)nc(Nc1nc3ccc(OC(F)(F)F)cc3o1)n2C1CCOCC1 [Example 79, 1-(tetrahydro-2H-pyran-4-yl)-2-((6-(trifluoromethoxy)benzo[d]oxazol-2-yl)amino)-1H-benzo[d]imidazole-5-carboxylic acid] | 27-51 | 
25 | COCCNC(=O)c1ccc2c(c1)nc(Nc1nc3ccc(OC(F)(F)F)cc3o1)n2C1CCOCC1 [Example 80, N-(2-methoxyethyl)-1-(tetrahydro-2H-pyran-4-yl)-2-((6-(trifluoromethoxy)benzo[d]oxazol-2-yl)amino)-1H-benzo[d]imidazole-5-carboxamide] | 22-23 | 
26 | COCCNC(=O)c1ccc2c(c1)nc(Nc1nc3cc(OC(F)(F)F)ccc3[nH]1)n2C1CCOCC1 [Example 81, N-(2-methoxyethyl)-1-(tetrahydro-2H-pyran-4-yl)-2-((5-(trifluoromethoxy)-1H-benzo[d]imidazol-2-yl)amino)-1H-benzo[d]imidazole-5-carboxamide] | 19-30 | 
27 | Cn1c(Nc2nc3cc(Cl)ccc3[nH]2)nc2cc(C(=O)O)ccc21 [Example 82, 2-((5-chloro-1H-benzo[d]imidazol-2-yl)amino)-1-methyl-1H-benzo[d]imidazole-5-carboxylic acid] | 29-33 | 
